Experiment [1] addresses T1, Ephrin type-A receptor 2 (Homo sapiens, UniProt P29317). The experiment can be described thus: Inhibition of EphA2 (unknown origin) expressed in […] cells assessed as reduction in wound closure after 72 hrs by phase contrast microscopy based would healing assay. The experiment is classed as cell-based.
For experiment [2], the target named is Platelet-derived growth factor receptor alpha (Homo sapiens) (UniProt P16234). The experiment can be described thus: Inhibition of PDGFRalpha (unknown origin) at 1 uM.
Sequence of Platelet-derived growth factor receptor alpha (Homo sapiens) (P16234 whole entry): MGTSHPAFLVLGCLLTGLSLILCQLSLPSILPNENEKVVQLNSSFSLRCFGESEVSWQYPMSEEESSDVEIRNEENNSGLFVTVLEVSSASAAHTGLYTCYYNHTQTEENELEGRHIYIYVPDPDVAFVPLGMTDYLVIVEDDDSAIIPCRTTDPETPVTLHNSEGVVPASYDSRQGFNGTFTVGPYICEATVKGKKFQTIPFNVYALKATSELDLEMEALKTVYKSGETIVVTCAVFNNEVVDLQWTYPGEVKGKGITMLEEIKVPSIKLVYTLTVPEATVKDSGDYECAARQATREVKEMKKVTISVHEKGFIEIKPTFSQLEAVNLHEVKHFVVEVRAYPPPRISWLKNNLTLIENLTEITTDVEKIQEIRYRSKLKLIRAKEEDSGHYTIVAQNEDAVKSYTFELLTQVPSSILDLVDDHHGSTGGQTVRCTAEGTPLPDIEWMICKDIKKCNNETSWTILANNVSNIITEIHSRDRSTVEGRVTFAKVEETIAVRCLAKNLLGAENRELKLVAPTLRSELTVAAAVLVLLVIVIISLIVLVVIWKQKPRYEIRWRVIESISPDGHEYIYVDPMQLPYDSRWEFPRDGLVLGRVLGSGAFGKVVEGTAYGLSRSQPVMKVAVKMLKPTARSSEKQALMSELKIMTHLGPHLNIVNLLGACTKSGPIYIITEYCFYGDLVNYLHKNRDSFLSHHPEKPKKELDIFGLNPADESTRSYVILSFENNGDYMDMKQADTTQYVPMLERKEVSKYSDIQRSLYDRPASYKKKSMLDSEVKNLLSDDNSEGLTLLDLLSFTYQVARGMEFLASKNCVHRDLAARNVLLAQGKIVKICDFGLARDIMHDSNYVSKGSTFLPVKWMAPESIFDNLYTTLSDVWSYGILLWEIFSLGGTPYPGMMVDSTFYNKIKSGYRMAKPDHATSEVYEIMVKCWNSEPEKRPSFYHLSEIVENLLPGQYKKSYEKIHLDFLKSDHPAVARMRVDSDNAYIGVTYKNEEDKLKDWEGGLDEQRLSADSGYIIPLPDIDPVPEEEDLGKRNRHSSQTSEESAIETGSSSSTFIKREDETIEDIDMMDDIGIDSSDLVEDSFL
Experiment [3] has as its target Epidermal growth factor receptor (Homo sapiens) (UniProt P00533). The experiment can be described thus: Inhibition of EGFR (unknown origin) at 1 uM.
Experiment [4] deals with Mitogen-activated protein kinase 1 (Homo sapiens) (UniProt P28482). The experiment can be described thus: Inhibition of ERK2 (unknown origin) at 1 uM.
Sequence of Mitogen-activated protein kinase 1 (Homo sapiens) (P28482 whole entry): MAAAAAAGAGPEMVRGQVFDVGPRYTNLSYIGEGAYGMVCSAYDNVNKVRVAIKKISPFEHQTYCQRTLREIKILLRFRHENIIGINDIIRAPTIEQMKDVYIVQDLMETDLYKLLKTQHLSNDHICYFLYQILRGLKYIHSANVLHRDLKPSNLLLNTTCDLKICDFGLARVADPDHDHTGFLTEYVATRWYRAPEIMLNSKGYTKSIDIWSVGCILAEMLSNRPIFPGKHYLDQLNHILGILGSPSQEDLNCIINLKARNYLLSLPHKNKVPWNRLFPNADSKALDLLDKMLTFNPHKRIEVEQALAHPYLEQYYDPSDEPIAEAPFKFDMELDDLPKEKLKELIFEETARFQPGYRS
The target of experiment [5] is Glycogen synthase kinase-3 beta (Homo sapiens) (UniProt P49841). Briefly: Inhibition of GSK3beta (unknown origin) at 1 uM.
Sequence of Glycogen synthase kinase-3 beta (Homo sapiens) (P49841 whole entry, looked up): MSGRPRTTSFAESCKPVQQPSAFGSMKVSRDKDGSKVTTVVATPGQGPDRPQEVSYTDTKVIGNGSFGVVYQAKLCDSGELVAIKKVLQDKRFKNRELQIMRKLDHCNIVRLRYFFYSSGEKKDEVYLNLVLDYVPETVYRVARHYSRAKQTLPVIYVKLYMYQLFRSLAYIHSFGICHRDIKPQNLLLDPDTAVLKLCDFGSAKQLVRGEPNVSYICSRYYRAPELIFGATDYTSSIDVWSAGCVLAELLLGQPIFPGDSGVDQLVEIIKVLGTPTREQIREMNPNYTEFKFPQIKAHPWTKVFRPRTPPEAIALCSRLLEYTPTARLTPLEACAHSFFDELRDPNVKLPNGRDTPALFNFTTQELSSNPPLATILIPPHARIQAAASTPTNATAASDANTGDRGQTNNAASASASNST
The target in experiment [6] is Vascular endothelial growth factor receptor 2 (Homo sapiens) (UniProt P35968). The experiment can be described thus: Inhibition of KDR (unknown origin) at 1 uM.
For experiment [7], the target named is Insulin receptor (Homo sapiens) (UniProt P06213). The experiment can be described thus: Inhibition of InsR (unknown origin) at 1 uM.
The target of experiment [8] is Insulin-like growth factor 1 receptor (Homo sapiens) (UniProt P08069). Briefly: Inhibition of IGF1R (unknown origin) at 1 uM.
For experiment [9], the target named is Mitogen-activated protein kinase 10 (Homo sapiens) (UniProt P53779). The experiment can be described thus: Inhibition of JNK3 (unknown origin) at 1 uM.
Sequence of Mitogen-activated protein kinase 10 (Homo sapiens) (P53779 whole entry): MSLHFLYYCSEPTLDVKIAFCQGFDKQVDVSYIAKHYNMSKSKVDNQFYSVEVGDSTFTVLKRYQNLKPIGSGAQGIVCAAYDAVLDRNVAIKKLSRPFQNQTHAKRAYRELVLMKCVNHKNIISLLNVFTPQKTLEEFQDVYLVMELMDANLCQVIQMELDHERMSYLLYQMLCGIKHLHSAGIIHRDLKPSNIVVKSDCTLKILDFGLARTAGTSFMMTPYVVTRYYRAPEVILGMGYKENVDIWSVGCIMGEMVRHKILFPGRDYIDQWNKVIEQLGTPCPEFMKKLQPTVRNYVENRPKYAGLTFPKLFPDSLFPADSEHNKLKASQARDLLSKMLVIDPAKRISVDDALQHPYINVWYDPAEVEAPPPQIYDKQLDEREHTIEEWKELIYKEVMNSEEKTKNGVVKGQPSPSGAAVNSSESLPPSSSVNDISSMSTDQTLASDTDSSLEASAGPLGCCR
The target of experiment [10] is Mitogen-activated protein kinase 14 (Homo sapiens) (UniProt Q16539). Briefly: Inhibition of p38alpha (unknown origin) at 1 uM.
Sequence of Mitogen-activated protein kinase 14 (Homo sapiens) (Q16539 whole entry): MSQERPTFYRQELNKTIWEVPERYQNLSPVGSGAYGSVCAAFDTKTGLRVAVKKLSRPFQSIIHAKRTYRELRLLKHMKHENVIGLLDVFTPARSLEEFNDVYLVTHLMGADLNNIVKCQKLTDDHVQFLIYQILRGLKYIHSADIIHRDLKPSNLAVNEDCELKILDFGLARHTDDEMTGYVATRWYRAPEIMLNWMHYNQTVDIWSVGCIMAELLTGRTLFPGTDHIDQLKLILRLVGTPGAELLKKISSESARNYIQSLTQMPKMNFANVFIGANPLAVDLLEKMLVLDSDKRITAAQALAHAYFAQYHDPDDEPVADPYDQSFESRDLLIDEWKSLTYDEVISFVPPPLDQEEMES
Experiment [11] deals with T1, Ephrin type-A receptor 2. The experiment can be described thus: Inhibition of EphA2 (unknown origin) pre-incubated with enzyme for 10 mins before adding peptide substrate and ATP using TK-substrate-biotin and SEB by time-resolved fluorescence resonance energy transfer assay.
Experiment [12] addresses Mitogen-activated protein kinase 11 (Homo sapiens) (UniProt Q15759). Briefly: Inhibition of p38beta (unknown origin) at 1 uM.
Experiment [13] deals with Mitogen-activated protein kinase 8 (Homo sapiens) (UniProt P45983). The experiment can be described thus: Inhibition of JNK1 (unknown origin) at 1 uM.
Sequence of Mitogen-activated protein kinase 8 (Homo sapiens) (P45983 whole entry): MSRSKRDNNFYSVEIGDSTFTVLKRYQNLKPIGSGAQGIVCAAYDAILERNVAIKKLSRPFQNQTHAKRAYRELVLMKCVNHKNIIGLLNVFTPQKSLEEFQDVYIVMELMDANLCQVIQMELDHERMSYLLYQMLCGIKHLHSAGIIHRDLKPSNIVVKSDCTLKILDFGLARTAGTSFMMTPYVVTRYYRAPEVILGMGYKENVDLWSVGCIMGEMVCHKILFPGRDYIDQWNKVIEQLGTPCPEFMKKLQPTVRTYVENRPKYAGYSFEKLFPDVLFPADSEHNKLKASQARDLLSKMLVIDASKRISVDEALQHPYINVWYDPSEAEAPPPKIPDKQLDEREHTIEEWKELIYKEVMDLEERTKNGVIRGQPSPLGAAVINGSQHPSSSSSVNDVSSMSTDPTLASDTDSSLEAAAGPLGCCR
In experiment [14] the target is Receptor tyrosine-protein kinase erbB-2 (Homo sapiens) (UniProt P04626). The experiment can be described thus: Inhibition of HER2 (unknown origin) at 1 uM.
Experiment [15] concerns the target T1, Ephrin type-A receptor 2. The experiment can be described thus: Inhibition of EphA2 (unknown origin) at 10 uM pre-incubated with enzyme for 10 mins before adding peptide substrate and ATP using TK-substrate-biotin and SEB by time-resolved fluorescence resonance energy transfer assay.

T1 sequence (P29317 whole entry): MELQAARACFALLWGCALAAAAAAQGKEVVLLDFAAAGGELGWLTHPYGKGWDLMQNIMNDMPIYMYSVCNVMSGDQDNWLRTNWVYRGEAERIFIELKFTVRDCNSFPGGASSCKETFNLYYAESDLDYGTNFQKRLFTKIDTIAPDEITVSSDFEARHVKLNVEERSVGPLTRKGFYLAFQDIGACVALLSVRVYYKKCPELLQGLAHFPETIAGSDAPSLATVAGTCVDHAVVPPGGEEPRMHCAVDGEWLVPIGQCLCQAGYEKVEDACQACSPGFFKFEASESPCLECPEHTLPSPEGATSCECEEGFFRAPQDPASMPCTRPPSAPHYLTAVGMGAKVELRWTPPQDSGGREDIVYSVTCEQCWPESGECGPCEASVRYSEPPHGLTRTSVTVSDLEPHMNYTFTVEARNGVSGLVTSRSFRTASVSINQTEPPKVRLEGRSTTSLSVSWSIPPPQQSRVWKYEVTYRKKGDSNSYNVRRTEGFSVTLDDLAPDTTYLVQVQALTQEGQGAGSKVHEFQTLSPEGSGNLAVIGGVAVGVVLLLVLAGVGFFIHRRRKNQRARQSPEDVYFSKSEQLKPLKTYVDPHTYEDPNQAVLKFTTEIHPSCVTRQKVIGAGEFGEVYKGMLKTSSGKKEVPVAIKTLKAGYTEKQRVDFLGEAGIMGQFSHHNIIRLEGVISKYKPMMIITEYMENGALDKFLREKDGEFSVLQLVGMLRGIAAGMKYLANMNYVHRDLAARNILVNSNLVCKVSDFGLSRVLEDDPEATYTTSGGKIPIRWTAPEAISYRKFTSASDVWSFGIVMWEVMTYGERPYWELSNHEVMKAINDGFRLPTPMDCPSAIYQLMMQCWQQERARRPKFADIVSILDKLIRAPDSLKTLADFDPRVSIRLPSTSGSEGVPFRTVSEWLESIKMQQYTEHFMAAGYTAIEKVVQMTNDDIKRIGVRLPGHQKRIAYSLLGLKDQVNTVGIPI
Sequence of Mitogen-activated protein kinase 11 (Homo sapiens) (Q15759 whole entry): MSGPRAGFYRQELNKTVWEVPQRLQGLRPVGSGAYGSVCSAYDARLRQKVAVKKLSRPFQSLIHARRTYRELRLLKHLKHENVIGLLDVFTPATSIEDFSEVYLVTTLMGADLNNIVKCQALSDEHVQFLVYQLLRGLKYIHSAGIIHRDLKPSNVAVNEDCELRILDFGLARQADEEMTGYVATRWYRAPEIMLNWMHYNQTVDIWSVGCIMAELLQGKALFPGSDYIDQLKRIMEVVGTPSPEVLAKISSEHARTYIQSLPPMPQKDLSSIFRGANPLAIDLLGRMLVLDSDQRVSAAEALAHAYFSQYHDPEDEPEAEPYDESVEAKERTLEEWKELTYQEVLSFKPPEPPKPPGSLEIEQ

As for `COc1cc2c(Nc3ccc(Cl)cc3F)ncnc2cc1OCC1CNCCO1` (stereo not given), the inhibition result at Ephrin type-A receptor 2 [1] is “Dose-dependent effect”; in [2], 17%; in [3], 100%; in experiment [4] it was 0%; in experiment [5] it was 11%; in experiment [6] it was 76%. Moreover, the inhibition in experiment [7] stood at 15%; in experiment [8] it was 7%; in [9], 0%; in [10], 16%; in experiment [12], 2%; in [13] it was 0%. Further, the inhibition in experiment [14] came out at 22%. Also, the IC50 against Ephrin type-A receptor 2 [11] came out at 160 nM.
Regarding `CCCc1ccc(Nc2ncnc3cc(OCC4CNCCO4)c(OC)cc23)cc1` (stereo not given), the inhibition against Ephrin type-A receptor 2 [15] was 49%.

The term inhibition denotes how much of the control response was suppressed. As a reminder, the IC50 is the concentration that inhibits the measured activity by half.
